Here are results for 7 compounds from US20090203901A1, “Process for preparing pyrazole functionalized benzodiazepinones” (Roche Colorado Corporation, priority 2008, published 2009).

Series [1] deals with vascular endothelial cell proliferation. To be noted: endothelial versus tumor cell proliferation; cited from earlier work.
The subject of series [2] is tumor growth and metastasis. The note with it: cited from earlier work.

For the compound `COc1cc(NC(=O)CBr)c(C(=O)c2ccccc2Cl)cc1F`, the melting point (as a rule, the temperature of the solid-liquid transition) is 177 to 178 °C.

For `COc1cc2c(cc1F)C(c1ccccc1Cl)=NCC(=O)N2`, the melting point is 210 to 212.5 °C.

Turning to `CO[C@@H]1[C@H](OC(=O)NC(=O)CCl)CC[C@]2(CO2)[C@H]1[C@@]1(C)O[C@@H]1CC=C(C)C` [AGM-1470], the “half-maximal inhibition of vascular endothelial cell proliferation at lower concentration than tumor cell proliferation” value in series [1] is listed as 4 logs. Besides, the “tumor growth and metastasis in vivo” value in series [2] was “inhibits tumor growth and metastasis in vivo”.

The compound `COc1cc(F)c(C(=O)c2ccccc2Cl)cc1F` [Example 1, 2′-Chloro-2,5-difluoro-4-methoxybenzophenone] yielded a melting point of 84 to 85 °C.

In the case of `COc1cc(NCc2ccccc2)c(C(=O)c2ccccc2Cl)cc1F` [Example 2, 2-(Benzylamino)-2′-chloro-5-fluoro-4-methoxybenzophenone], the melting point is 122 to 124 °C.

For `COc1cc(N)c(C(=O)c2ccccc2Cl)cc1F` [Example 3a, 2-Amino-2′-chloro-5-fluoro-4-methoxybenzophenone], the melting point lay within 130.5 to 132.5 °C.

As for `C=CCNc1cc(OC)c(F)cc1C(=O)c1ccccc1Cl` [Example 9, 2-(Allylamino)-2′chloro-5-fluoro-4-methoxybenzophenone], the melting point lay within 125 to 127 °C.
